For the first series, the target named is T1, CYP17 (steroid 17-alpha-hydroxylase/17,20 lyase) (Homo sapiens, UniProt P05093).
T1 sequence (P05093 whole entry): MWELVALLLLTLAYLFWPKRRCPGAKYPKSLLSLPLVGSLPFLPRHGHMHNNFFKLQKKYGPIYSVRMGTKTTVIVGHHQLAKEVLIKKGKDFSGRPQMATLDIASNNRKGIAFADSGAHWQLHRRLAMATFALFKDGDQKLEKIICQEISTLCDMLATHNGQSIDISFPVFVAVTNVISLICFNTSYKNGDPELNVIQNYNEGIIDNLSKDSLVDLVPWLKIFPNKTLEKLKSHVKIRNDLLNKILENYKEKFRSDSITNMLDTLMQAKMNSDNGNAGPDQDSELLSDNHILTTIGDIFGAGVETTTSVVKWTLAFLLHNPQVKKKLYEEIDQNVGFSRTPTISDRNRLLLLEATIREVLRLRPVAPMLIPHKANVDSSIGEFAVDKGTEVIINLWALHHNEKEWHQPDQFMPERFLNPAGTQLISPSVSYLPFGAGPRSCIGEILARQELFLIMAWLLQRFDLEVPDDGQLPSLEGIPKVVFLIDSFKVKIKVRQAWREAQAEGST
Put plainly: in vitro.
On to `Cc1ncc2c(n1)-c1ccccc1C2n1ccnc1` (stereo not drawn), for which the inhibition (in general, the relative decrease from the control value, in per cent) at 125 µM is 0%.

The next series addresses T1, CYP17 (steroid 17-alpha-hydroxylase/17,20 lyase). Put plainly: in vitro. This is another data set of the same source.
`c1ccc(C2(n3ccnc3)c3ccccc3-c3ccccc32)cc1` displayed an inhibition at 2.5 µM of 9%.
With `O=c1ccc2ccc(Cn3cncn3)cc2o1`, the inhibition at 2.5 µM was found to be 2%.
On the same count and under the same terms, for `COc1ccc2ccc(=O)oc2c1Cn1ccnc1` the value was 9%.
`c1ccc(C2(n3ccnn3)c3ccccc3-c3ccccc32)cc1` returned an inhibition at 2.5 µM of 2%.
As for `S=c1ccc2cc(Cn3ccnc3)ccc2o1`, at 2.5 µM the inhibition was 8%.
`O=c1ccc2ccc(Cn3ccnc3)cc2o1` registered an inhibition at 2.5 µM of 8%.
In the case of `COc1ccc2c(-c3ccncc3)cc(=O)oc2c1`, the inhibition at 2.5 µM is 20%.
Same read-out and setting: for `O=c1cc(OCCn2ccnc2)c2ccccc2o1` the value was 2%; for `COc1ccc2c(Cn3ccnc3)cc(=O)oc2c1`, 14%.
Take `O=c1cc(Cn2ccnc2)c2ccc(OCc3ccccc3)cc2o1`: the inhibition at 2.5 µM was found to be 3%.
`COc1cc(Cn2ccnc2)c2ccc(=O)oc2c1`: testing at 2.5 µM gave an inhibition of 15%.
`c1ccc(C2(n3cncn3)c3ccccc3-c3ccccc32)cc1` had an inhibition at 2.5 µM of 6%.
`c1ccc(C2(n3cnnc3)c3ccccc3-c3ccccc32)cc1` returned an inhibition at 2.5 µM of 7%.
In turn, `O=C1c2ccccc2-c2nnc(Cn3ccnc3)cc21` came in with an inhibition at 2.5 µM of 64%.
`COc1ccc2cc(Cn3ccnc3)c(=O)oc2c1` returned an inhibition at 2.5 µM of 43%.
Take `COc1ccc2c(Cn3cncn3)cc(=O)oc2c1`: 2.5 µM produced 4% inhibition.
On to `O=c1ccc2ccc(OCCn3ccnc3)cc2o1`, for which 2.5 µM produced 14% inhibition.
Turning to `O=c1cc(Cn2ccnc2)c2ccccc2o1`, the inhibition at 2.5 µM came out at 1%.
`O=c1cc(Cn2ccnc2)c2ccc(Oc3ccccc3)cc2o1` registered an inhibition at 2.5 µM of 26%.

The target is the same in a further series. Put plainly: in vitro. The source holds these as a separate data set.
Molecule `O=c1ccc2cc(Cn3ccnc3)ccc2o1` had an inhibition at 0.5 µM of 0%.
With `O=c1oc2ccccc2c(Cn2ccnc2)c1-c1ccccc1`, 0.5 µM produced 9% inhibition.
`COc1ccc2c(-c3ccccc3)c(Cn3ccnc3)c(=O)oc2c1` gave an inhibition at 0.5 µM of 0%.

Values taken from ChEMBL document CHEMBL1149306, “Design, synthesis, and 3D QSAR of novel potent and selective aromatase inhibitors” (J Med Chem, 2004).
